Reference: PMC9929129, “Towards Translation of PqsR Inverse Agonists: From In Vitro Efficacy Optimization to In Vivo Proof‐of‐Principle” (Advanced Science, 2023)

Legend:
PA14 biofilm = experiment: Biofilm-eradication assay with tobramycin (Calgary biofilm device); format: cell-based, Pseudomonas aeruginosa
Method: MA, USA) instrument parameters: Spray voltage 3500 V, vaporizer temperature 370 °C, sheath gas pressure 35 psi, aux gas pressure 30 psi, capillary temperature 270 °C, collision pressure 1.5 mTorr, positive ionization mode. For AQ analyte reaction monitoring parameters please see Table S1.
Table S1. LC-ESI-MS/MS reaction monitoring parameters of AQ analytes in positive ionization mode. precursor product ion collision tube lens retention ion m/z m/z energy (V) offset (V) time (min)
1.2.4 Biofilm-formation assay
Biofilm formation was determined using a MBEC Assay® Biofilm Inoculator with 96-well base (Innvotech, Edmonton, CA). An overnight culture of PA14 was centrifuged (10 min, 5000 x g). The supernatant including extracellular polymers was removed and the pellet washed with 10 mL of LB medium. Centrifugation was repeated, the supernatant discarded, and the pellet resuspended in 5 mL of LB. OD was adjusted to 0.2. The bacteria were further diluted in LB medium, followed by addition of the target compound or DMSO control to give OD 0.1 and 1% DMSO. 150 µL were added to each well of the 96-well plate. The outer wells were used as blanks containing 150 µL of 1% DMSO in LB. Six replicates per sample were distributed evenly across the plate, with every row containing one replicate of each sample. The well plate was covered with the peg lid. One layer of parafilm was wrapped around the biofilm inoculator. The inoculator was incubated at 37 °C, static for 24 h with a beaker of H2O ensuring humidity. Alternatively, the plate was incubated using only LB for 8 h prior to addition of DMSO/24 to give 1% DMSO, followed by another 16 h incubation under the same […]
After 24 h, the plate was removed from the incubator and the peg lid was transferred to a fresh 96 well plate (Nunc U bottom, Thermo Fisher, Dreieich, Germany) containing the respective target […]
compound, 150 µL 1% DMSO in LB. The inoculator was wrapped with parafilm again and incubated for another 24 h. […]
Statistical outliers were determined using the Nalimov test, applying a 95% cut-off. […]

[1] = tested on: P. aeruginosa strain ATCC 27853; experiment: Neutropenic thigh infection model in mice
Method: Figure S6. AUC levels after IV and IT administration
1.4.8 In vivo thigh infection model with P. aeruginosa
Male, 6 weeks-old, CD -1 mice (Charles River, Netherlands) were rendered neutropenic by administration of 150 mg/kg and 100 mg/kg cyclophosphamide i.p. on day –4, –1 and +1, respectively. The P. aeruginosa strain ATCC 27853 was used. The inoculum was prepared as follows: on day –1 the P. aeruginosa strain was streaked out onto a blood agar plate and incubated at 37 °C.
Then one sing le colony was inoculated into MHB medium (diluted 1:2 in water) and incubated at 120 rpm and 37 °C. […]
PBS. Then they were adjusted to an OD of 1 and diluted 1:5000 in PBS. The inoculum was plated onto MHB agar plates in serial dilutions and incubated at 37 °C. Mice were grouped into the following (n=18 for each group): (1) baseline inoculum group, sacrificed 2 h post infection; (2) vehicle control group (receiving vehicle t= 2, 12, 24 and 36 h post infection as well as 20 mg/kg tramadol SC t= 0 and 24 h post infection); (3) tobramycin group I (8 mg/kg tobramycin IV at t= 2 and 24 h post infection); (4) tobramycin group II (1 mg/kg tobramycin IV at t= 2 and 24 h post infection); (5) 24 group (30 mg/kg 24 SC at t=2, 12, 24 and 36 h post infection); (6) 24 + tobramycin group (30 mg/kg 24 SC at t=2, 12, 24 and 36 h and tobramycin 1 mg/kg IV at t= 2 and 24 h post infection). On the day of infection (day 0), mice received 30 µL of the P. aeruginosa strain ATCC 27853 into each lateral thigh (inoculum:
1x10^5 cfu/mL). 48 h after infection, mice were euthanized, blood was removed from the heart, lung and thighs were aseptically removed. […]
homogenized in 0.9% NaCl-solution and plated onto MHB agar plates in duplicate in serial dilutions and incubated at 37 °C for 24 h. Blood, lung and thighs were also subjected to LC-MS/MS analysis.
Figure S8. Plasma and lung-tissue levels after the in vivo infection model.

Row | Structure (SMILES) | Potentiation of tobramycin activity on biofilm (PA14 biofilm; 0.1 × 10^−6 M 24 plus tobramycin 0.5 µg mL^−1, p = 0.21) | CFU reduction of combination treatment compared to single treatment with the antibiotic (PA14 biofilm; 1 and 10 × 10^−6 M 24 plus tobramycin 0.5 µg mL^−1) [fold] | bacterial burden in the muscle compared to all other groups ([1]; 24 30 mg kg^−1 SC combined with low dose tobramycin 1 mg kg^−1 IV, 48 h, p < 0.001) | bacterial burden, secondary site of infection (lung), dissemination ([1]; 24 30 mg/kg SC combined with low tobramycin dose 1 mg/kg IV, 48 h) | CFU reduction over vehicle, primary infection site (thigh muscle) ([1]; 24 alone, 30 mg/kg SC at 2, 12, 24 and 36 h p.i., 48 h) | bacterial burden, secondary site of infection (lung), dissemination ([1]; 24 alone, 30 mg/kg SC, 48 h) | Effect of tobramycin alone on untreated biofilms (CFU) (PA14 biofilm; tobramycin 0.5 µg mL^−1, 24 h treatment, p = 0.03) | terminal level in plasma and lung tissue (LC–MS/MS) ([1]; 48 h after infection) | CFU reduction over vehicle, primary infection site (thigh muscle) ([1]; tobramycin high, 8 mg/kg IV at 2 and 24 h p.i., 48 h) | bacterial burden, secondary site of infection (lung), dissemination ([1]; tobramycin high, 8 mg/kg IV, 48 h) | CFU reduction over vehicle, primary infection site (thigh muscle) ([1]; tobramycin low, 1 mg/kg IV at 2 and 24 h p.i., 48 h) | bacterial burden, secondary site of infection (lung), dissemination ([1]; tobramycin low, 1 mg/kg IV, 48 h)
1 | CC(C)Oc1ccc(-c2ncc(CNc3ccnc(C(F)(F)F)c3)cn2)cc1Cl [Compound 24] | not sufficient | > 3 | significantly reduced bacterial burden | detectable inhibition of dissemination | did not exert significant effects | did not show a significant effect | – | – | – | – | – | –
2 | NC[C@H]1O[C@H](O[C@H]2[C@H](O)[C@@H](O[C@H]3O[C@H](CO)[C@@H](O)[C@H](N)[C@H]3O)[C@H](N)C[C@@H]2N)[C@H](N)C[C@@H]1O [Tobramycin, tobramycin] | – | – | – | – | – | – | only minor effects | did not detect any | did not exert significant effects | did not reach significance | did not exert significant effects | did not show a significant effect
